This note sets out measurements from patent US11084800B2 (Achillion Pharmaceuticals, Inc., priority 2017, dated 2021).

Sequence of Human Factor D (P00746 26-253): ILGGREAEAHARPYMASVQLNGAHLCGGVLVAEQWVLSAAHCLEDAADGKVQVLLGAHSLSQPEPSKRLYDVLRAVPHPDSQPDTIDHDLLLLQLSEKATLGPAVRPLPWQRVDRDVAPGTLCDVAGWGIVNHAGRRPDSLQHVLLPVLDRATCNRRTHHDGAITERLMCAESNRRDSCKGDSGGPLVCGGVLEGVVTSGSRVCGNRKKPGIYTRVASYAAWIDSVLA

One assay has as its target Human Factor D (Homo sapiens (Human), UniProt P00746). Put plainly: Human Factor D Assay. Particulars: Factor D inhibition, assay of Example 10; read-out: IC5 (Stars). It counts as biochemical. In outline: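 Serum-purified Factor D (80 nM final) preincubated 5 min at room temperature with compound in 50 mM Tris, 1 M NaCl, pH 7.5. Z-L-Lys-SBz and DTNB added at 100 μM each; A405 followed every 30 s for 30 min. IC50 from nonlinear regression of rates versus concentration.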
With `CC(=O)c1nn(CC(=O)N2[C@H](C(=O)Nc3nc(Br)ccc3C)C[C@@]3(C)C[C@@H]23)c2c(C(F)CF)cc(-c3cnc(C)nc3)cc12` (stereo partly drawn) [Compound 237, (1R,3S,5R)-2-(2-(3-acetyl-7-(1,2-difluoroethyl)-5-(2-methylpyrimidin-5-yl)-1H-indazol-1-yl)acetyl)-N-(6-bromo-3-methylpyridin-2-yl)-5-methyl-2-azabicyclo[3.1.0]hexane-3-carboxamide], the IC50 was under 1000 nM.

Regarding `CC(=O)c1nn(CC(=O)N2[C@H](C(=O)Nc3nc(Br)ccc3C)C[C@@]3(C)C[C@@H]23)c2c(C(O)CF)cc(-c3cnc(C)nc3)cc12` (stereo partly drawn) [Compound 238, (1R,3S,5R)-2-(2-(3-acetyl-7-(2-fluoro-1-hydroxyethyl)-5-(2-methylpyrimidin-5-yl)-1H-indazol-1-yl)acetyl)-N-(6-bromo-3-methylpyridin-2-yl)-5-methyl-2-azabicyclo[3.1.0]hexane-3-carboxamide], the IC50 is under 1000 nM.

For `CC(=O)c1nn(CC(=O)N2[C@H]3C[C@@]3(CC#N)C[C@H]2C(=O)Nc2nc(Br)ccc2C)c2cnc(-c3cnc(C)nc3)cc12` [Compound 239, (1S,3S,5S)-2-(2-(3-acetyl-5-(2-methylpyrimidin-5-yl)-1H-pyrazolo[3,4-c]pyridin-1-yl)acetyl)-N-(6-bromo-3-methylpyridin-2-yl)-5-(cyanomethyl)-2-azabicyclo[3.1.0]hexane-3-carboxamide], the IC50 was in the range of 1000 to 10000 nM.

For `CC(=O)c1nn(CC(=O)N2[C@@H](C(=O)Nc3nc(Br)ccc3C)C[C@]3(CC#N)C[C@H]23)c2cnc(-c3cnc(C)nc3)cc12` [Compound 240, (1S,3R,5S)-2-(2-(3-acetyl-5-(2-methylpyrimidin-5-yl)-1H-pyrazolo[3,4-c]pyridin-1-yl)acetyl)-N-(6-bromo-3-methylpyridin-2-yl)-5-(cyanomethyl)-2-azabicyclo[3.1.0]hexane-3-carboxamide], the IC50 was 1000 to 10000 nM.

Consider `CC(=O)c1nn(CC(=O)N2C[C@H]3C[C@H]3[C@H]2C(=O)Nc2nc(Br)ccc2C)c2c(C)nc(-c3cnc(C)nc3)cc12` [Compound 241, (1R,2S,5S)-3-(2-(3-acetyl-7-methyl-5-(2-methylpyrimidin-5-yl)-1H-pyrazolo[3,4-c]pyridin-1-yl)acetyl)-N-(6-bromo-3-methylpyridin-2-yl)-3-azabicyclo[3.1.0]hexane-2-carboxamide], for which the IC50 is under 1000 nM.

Still in this assay, the particulars now being: Table 6; Factor D 80 nM, substrate Z-L-Lys-SBz; read-out: IC50.
`CC(=O)c1nn(CC(=O)N2[C@H](C(=O)Nc3nc(Br)ccc3C)C[C@@]3(C)C[C@@H]23)c2c(C)nc(-c3cnc(C)nc3)cc12` [Compound 205, (1R,3S,5R)-2-(2-(3-acetyl-7-methyl-5-(2-methylpyrimidin-5-yl)-1H-pyrazolo[3,4-c]pyridin-1-yl)acetyl)-N-(6-bromo-3-methylpyridin-2-yl)-5-methyl-2-azabicyclo[3.1.0]hexane-3-carboxamide]: the IC50 is under 1000 nM.

For the molecule `CC(=O)c1nn(CC(=O)N2[C@H]3C[C@@]3(CN3C[C@H]4CCC[C@H]4C3)C[C@H]2C(=O)Nc2nc(Br)ccc2C)c2cnc(-c3cnc(C)nc3)cc12` [Compound 206, (1S,3S,5S)-2-(2-(3-acetyl-5-(2-methylpyrimidin-5-yl)-1H-pyrazolo[3,4-c]pyridin-1-yl)acetyl)-N-(6-bromo-3-methylpyridin-2-yl)-S-(((3aR,6a5)-hexahydrocyclopenta[c]pyrrol-2(1H)-yl)methyl)-2-azabicyclo[3.1.0]hexane-3-carboxamide], the IC50 was under 1000 nM.

As for `CC(=O)c1nn(CC(=O)N2[C@H]3C[C@@]3(CN3CC4(CCCC4)C3)C[C@H]2C(=O)Nc2nc(Br)ccc2C)c2cnc(-c3cnc(C)nc3)cc12` [Compound 207, (1S,3S,5S)-5-((2-azaspiro[3.4]octan-2-yl)methyl)-2-(2-(3-acetyl-5-(2-methylpyrimidin-5-yl)-1H-pyrazolo[3,4-c]pyridin-1-yl)acetyl)-N-(6-bromo-3-methylpyridin-2-yl)-2-], the IC50 was under 1000 nM.

Turning to `CC(=O)c1nn(CC(=O)N2[C@H](C(=O)Nc3nc(Br)ccc3C)C[C@@]3(C)C[C@@H]23)c2c(C)cc(-c3cnc(OC4COC4)nc3)cc12` [Compound 208, (1R,3S,5R)-2-(2-(3-acetyl-7-methyl-5-(2-(oxetan-3-yloxy)pyrimidin-5-yl)-1H-indazol-1-yl)acetyl)-N-(6-bromo-3-methylpyridin-2-yl)-5-methyl-2-azabicyclo[3.1.0]hexane-3-carboxamide], the IC50 is under 1000 nM.

As to `CC(=O)c1nn(CC(=O)N2[C@H](C(=O)Nc3nc(Br)c(F)cc3C)C[C@@]3(C)C[C@@H]23)c2c(C)nc(-c3cnc(C)nc3)cc12` [Compound 209, (1R,3S,5R)-2-(2-(3-acetyl-7-methyl-5-(2-methylpyrimidin-5-yl)-1H-pyrazolo[3,4-c]pyridin-1-yl)acetyl)-N-(6-bromo-5-fluoro-3-methylpyridin-2-yl)-5-methyl-2-azabicyclo[3.1.0]hexane-3-carboxamide], the IC50 was under 1000 nM.

Take `CC(=O)c1nn(CC(=O)N2[C@H](C(=O)Nc3nc(Br)ccc3C)C[C@@]3(C)C[C@@H]23)c2c(C)cc(-c3cnc(C)nc3)nc12` [Compound 210, (1R,3S,5R)-2-(2-(3-acetyl-7-methyl-5-(2-methylpyrimidin-5-yl)-1H-pyrazolo[4,3-b]pyridin-1-yl)acetyl)-N-(6-bromo-3-methylpyridin-2-yl)-5-methyl-2-azabicyclo[3.1.0]hexane-3-carboxamide]: the IC50 is over 10000 nM.

In the case of `NC(=O)c1cc(-c2cccnc2)n(CC(=O)N2C[C@H](F)C[C@H]2C(=O)Nc2cccc(Br)n2)n1` [Compound 211, 1-(2-((2S,4R)-2-((6-Bromopyridin-2-yl)carbamoyl)-4-fluoropyrrolidin-1-yl)-2-oxoethyl)-5-(pyridin-3-yl)-1H-pyrazole-3-carboxamide], the IC50 was under 1000 nM.

Consider `Cc1ccc(Br)nc1NC(=O)[C@@H]1C[C@@]2(C)C[C@H]2N1C(=O)Cn1nc(C(N)=O)cc1-c1ccco1` [Compound 212, (1R,3S,5R)—N-(6-Bromo-3-methylpyridin-2-yl)-2-(2-(3-carbamoyl-5-(furan-2-yl)-1H-pyrazol-1-yl)acetyl)-5-methyl-2-azabicyclo[3.1.0]hexane-3-carboxamide], for which the IC50 is under 1000 nM.

Take `Cc1ccc(Br)nc1NC(=O)[C@@H]1C[C@@]2(C)C[C@H]2N1C(=O)Cn1nc(-c2ccco2)cc1C(N)=O` [Compound 213, (1R,3S,5R)—N-(6-Bromo-3-methylpyridin-2-yl)-2-(2-(5-carbamoyl-3-(furan-2-yl)-1H-pyrazol-1-yl)acetyl)-5-methyl-2-azabicyclo[3.1.0]hexane-3-carboxamide]: the IC50 lay within 1000 to 10000 nM.

As for `Cc1ccc(Br)nc1NC(=O)[C@@H]1C[C@@]2(C)C[C@H]2N1C(=O)Cn1nc(C(N)=O)cc1-c1cccs1` [Compound 214, (1R,3S,5R)—N-(6-Bromo-3-methylpyridin-2-yl)-2-(2-(3-carbamoyl-5-(thiophen-2-yl)-1H-pyrazol-1-yl)acetyl)-5-methyl-2-azabicyclo[3.1.0]hexane-3-carboxamide], the IC50 was under 1000 nM.

On to `Cc1ncc(-c2cc(C(N)=O)nn2CC(=O)N2C[C@H](F)C[C@H]2C(=O)Nc2cccc(Br)n2)cn1` [Compound 215, 1-(2-((2S,4R)-2-((6-Bromopyridin-2-yl)carbamoyl)-4-fluoropyrrolidin-1-yl)-2-oxoethyl)-5-(2-methylpyrimidin-5-yl)-1H-pyrazole-3-carboxamide], for which the IC50 is over 10000 nM.

For the molecule `CC(=O)c1c2cc(-c3cnc(C)nc3)cc(C(F)(F)F)c2nn1CC(=O)N1[C@H](C(=O)Nc2nc(Br)ccc2C)C[C@@]2(C)C[C@@H]12` [Compound 217, (1R,3S,5R)-2-(2-(3-acetyl-5-(2-methylpyrimidin-5-yl)-7-(trifluoromethyl)-2H-indazol-2-yl)acetyl)-N-(6-bromo-3-methylpyridin-2-yl)-5-methyl-2-azabicyclo[3.1.0]hexane-3-carboxamide], the IC50 is over 10000 nM.

Regarding `CC(=O)c1nn(CC(=O)N2[C@H](C(=O)Nc3nc(Br)ccc3C)C[C@@]3(C)C[C@@H]23)c2cnc(-c3cnc4cc(C)nn4c3)cc12` [Compound 219, (1R,3S,5R)-2-(2-(3-acetyl-5-(2-methylpyrazolo[1,5-a]pyrimidin-6-yl)-1H-pyrazolo[3,4-c]pyridin-1-yl)acetyl)-N-(6-bromo-3-methylpyridin-2-yl)-5-methyl-2-azabicyclo[3.1.0]hexane-3-carboxamide], the IC50 was under 1000 nM.

The same assay, now with this note: Table 8; Factor D 80 nM, substrate Z-L-Lys-SBz; read-out: IC50.
For `CC(=O)c1nn(CC(=O)N2[C@H](C(=O)Nc3nc(Br)ccc3C)C[C@@]3(C)C[C@@H]23)c2c(-c3nn[nH]n3)cc(-c3cnc(C)nc3)cc12` [Compound 236, (1R,3S,5R)-2-(2-(3-acetyl-5-(2-methylpyrimidin-5-yl)-7-(2H-tetrazol-5-yl)-1H-indazol-1-yl)acetyl)-N-(6-bromo-3-methylpyridin-2-yl)-5-methyl-2-azabicyclo[3.1.0]hexane-3-carboxamide], the IC50 was under 1000 nM.

Consider `CC(=O)c1nn(CC(=O)N2[C@H](C(=O)Nc3nc(Br)ccc3C)C[C@@]3(C)C[C@@H]23)c2ccc(-c3cnc(CNC(=O)COCCOCCNC(=O)COCCOCCNC(=O)CC[C@H](NC(=O)CCCCCCCCCCCCCCCCC(=O)O)C(=O)O)nc3)cc12` [Compound 242], for which the IC50 was under 1000 nM.

Consider `CC(=O)c1nn(CC(=O)N2C[C@@]3(CC(c4ccccc4)=NO3)C[C@H]2C(=O)Nc2nc(Br)ccc2C)c2c(C)cc(-c3cnc(C)nc3)cc12` [Compound 243, (5S,8S)-7-(2-(3-acetyl-7-methyl-5-(2-methylpyrimidin-5-yl)-1H-indazol-1-yl)acetyl)-N-(6-bromo-3-methylpyridin-2-yl)-3-phenyl-1-oxa-2,7-diazaspiro[4.4]non-2-ene-8-carboxamide], for which the IC50 lay within 1000 to 10000 nM.

As to `CC(=O)c1nn(CC(=O)N2CC3(CC(C4CCCCC4)=NO3)C[C@H]2C(=O)Nc2nc(Br)ccc2C)c2c(C)cc(-c3cnc(C)nc3)cc12` (stereo partly drawn) [Compound 244, (8S)-7-(2-(3-acetyl-7-methyl-5-(2-methylpyrimidin-5-yl)-1H-indazol-1-yl)acetyl)-N-(6-bromo-3-methylpyridin-2-yl)-3-cyclohexyl-1-oxa-2,7-diazaspiro[4.4]non-2-ene-8-carboxamide], the IC50 is under 1000 nM.
